# Results as given in US20050112573A1, “Method of detecting toxic substance” (priority 2001, published 2005).
# System: yeast genes (level of expressed mRNA)
# Experiment: DNA chip analysis of expressed mRNA of yeast genes after 2 h culture with a toxic chemical substance
# Type: cell-based, Saccharomyces cerevisiae S288C
# Conditions: for The level of expressed mRNA in the presence of chemical substance/ (ratio to absence of chemical substance): stress protein genes, DNA chip
# Description: Yeast (Saccharomyces cerevtisiae S288C (α SUC2mal mel gap2 CUP1)) were cultured at 25° C. on YPD medium (yeast extract 1%, polypepton 2%, glucose 2%). One of toxic chemical substances was added to the cell at logarithmic growth phase, and the cell was further cultured for two hours. Cell was cultured without any chemical substance in the same condition, and was used as control. Concentrations of the chemical substances were defined to inhibit the growth of the yeast but not lead to death.
# After the completion of cultivation, the culture was centrifuged to collect the cells. To the cells, sodium acetate buffer (50 mM sodium acetate, 10 mM EDTA, 1% SDS) was added, and the mixture was shaken at 65° C. for five minutes, followed by returning to room temperature, and obtaining the supernatant, which procedure was repeated two times. To the supernatant, ½ amount of a solution of phenol/chloroform was added, and the mixture was centrifuged to give a supernatant, which was added with an equal amount of chloroform, and the mixture was centrifuged to give a supernatant. To the supernatant, an equal amount of isopropanol containing 0.3 M sodium acetate was added, and the mixture was allowed to stand at room temperature for 30 minutes, after which the mixture was centrifuged to give a sediment of the whole RNAs. Seventy % ethanol was added to the sediment, and the mixture was again centrifuged to give a sediment, which was then dried and dissolved in water. mRNA was isolated from the whole RNAs as followings. In view of the fact that a poly A chain is attached to the 3′ terminus of mRNA, a polynucleotide having a poly T structure which was immobilized on the surface of latex beads was used to trap the mRNA, and then the mRNA was washed and eluted with spine column (Oligotex-dT30<Super>mRNA Purification Kit, Takara). Reverse transcription of the mRNA was conducted with a reverse transcriptase (Super Script II Reverse Transcriptase; catalogue No. 18064-014, GibcoBRL) using fluorescence-labeled nucleotides to give cDNAs that were introduced with Cy3-dUTP or Cy5-dUTP during the reverse transcription.
# The labeled cDNAs were dissolved in TE buffer (10 mM Tris-HCl/1 mM EDTA, pH8.0), and the solution was dropped on the DNA chip containing the whole genes of yeast (DNA Chip Research Inc. Japan) so that the cDNAs were hybridized on the DNA chip at 65° C. for over 12 hours. The fluoresces intensity of the DNA chip was read with a scanner, and the ratio relative to the fluorescence intensity resulting from the absence of chemical substance was estimated as the following, which is shown in Tables 1 to 9: [formula]
# In the Tables, “Intensity” indicated in the rightmost column is a value of the level of expressed mRNA of each gene in control cells as divided by the average level of the expressions of the whole genes.
compound,measurement,setting,value
"CCCCCCCCCCCCOS(=O)(=O)[O-].[Na+] [(18), sodium lauryl sulfate]","The level of expressed mRNA in the presence of chemical substance/ in its absence, gene YDL078C","yeast gene YDL078C, ratio of DNA chip fluorescence intensity to that without chemical substance",2.0
same,"The level of expressed mRNA in the presence of chemical substance/ (in its absence), gene YDL215C","yeast gene YDL215C, ratio of DNA chip fluorescence intensity to that without chemical substance",1.6
same,The level of expressed mRNA in the presence of chemical substance/The level of expressed mRNA in the absence of chemical substance,yeast gene YDL238C,1.3
same,The level of expressed mRNA in the presence of chemical substance/The level of expressed mRNA in the absence of chemical substance,yeast gene YDR055W,1.9
same,"The level of expressed mRNA in the presence of chemical substance/ (in its absence), gene YDR073W","yeast gene YDR073W, ratio of DNA chip fluorescence intensity to that without chemical substance",2.3
same,"The level of expressed mRNA in the presence of chemical substance/ in its absence, gene YDR079W","yeast gene YDR079W, energy system protein genes, 2 h culture with the chemical, ratio to control without chemical",1.3
same,"The level of expressed mRNA in the presence of chemical substance/ (ratio to absence), gene YDR079W","yeast gene YDR079W, mitochondria-located protein genes, 2 h culture with chemical",1.3
same,The level of expressed mRNA in the presence of chemical substance/The level of expressed mRNA in the absence of chemical substance,yeast gene YDR084C,1.3
same,The level of expressed mRNA in the presence of chemical substance/The level of expressed mRNA in the absence of chemical substance,yeast gene YDR085C,1.8
same,The level of expressed mRNA in the presence of chemical substance/The level of expressed mRNA in the absence of chemical substance,yeast gene YDR104C,1.0
same,The level of expressed mRNA in the presence of chemical substance/The level of expressed mRNA in the absence of chemical substance,yeast gene YDR115W,1.4
same,The level of expressed mRNA in the presence of chemical substance/The level of expressed mRNA in the absence of chemical substance,yeast gene YDR259C,0.8
same,"The level of expressed mRNA in the presence of chemical substance/ (in its absence), gene YDR297W","yeast gene YDR297W, ratio of DNA chip fluorescence intensity to that without chemical substance",1.9
same,The level of expressed mRNA in the presence of chemical substance/The level of expressed mRNA in the absence of chemical substance,yeast gene YDR315C,1.2
same,The level of expressed mRNA in the presence of chemical substance/The level of expressed mRNA in the absence of chemical substance,yeast gene YDR358W,1.9
same,"The level of expressed mRNA in the presence of chemical substance/ (ratio to absence), gene YDR377W","yeast gene YDR377W, mitochondria-located protein genes, 2 h culture with chemical",2.5
same,"The level of expressed mRNA in the presence of chemical substance/ (in its absence), gene YDR387C","yeast gene YDR387C, ratio of DNA chip fluorescence intensity to that without chemical substance",1.1
same,The level of expressed mRNA in the presence of chemical substance/The level of expressed mRNA in the absence of chemical substance,yeast gene YDR388W,1.3
same,The level of expressed mRNA in the presence of chemical substance/The level of expressed mRNA in the absence of chemical substance,yeast gene YDR432W,0.7
same,The level of expressed mRNA in the presence of chemical substance/The level of expressed mRNA in the absence of chemical substance,yeast gene YDR481C,1.4
same,The level of expressed mRNA in the presence of chemical substance/The level of expressed mRNA in the absence of chemical substance,yeast gene YDR510W,1.5
same,The level of expressed mRNA in the presence of chemical substance/ (ratio to absence of chemical substance),yeast gene YEL039C,1.1
same,The level of expressed mRNA in the presence of chemical substance/The level of expressed mRNA in the absence of chemical substance,yeast gene YEL042W,0.8
same,The level of expressed mRNA in the presence of chemical substance/The level of expressed mRNA in the absence of chemical substance,yeast gene YEL066W,1.1
same,"The level of expressed mRNA in the presence of chemical substance/ (in its absence), gene YER015W","yeast gene YER015W, ratio of DNA chip fluorescence intensity to that without chemical substance",2.6
same,The level of expressed mRNA in the presence of chemical substance/The level of expressed mRNA in the absence of chemical substance,yeast gene YER039C,1.1
same,The level of expressed mRNA in the presence of chemical substance/ (ratio to absence of chemical substance),yeast gene YER057C,1.8
same,The level of expressed mRNA in the presence of chemical substance/The level of expressed mRNA in the absence of chemical substance,yeast gene YER107C,1.2
same,The level of expressed mRNA in the presence of chemical substance/The level of expressed mRNA in the absence of chemical substance,yeast gene YER130C,2.5
same,The level of expressed mRNA in the presence of chemical substance/The level of expressed mRNA in the absence of chemical substance,yeast gene YFL028C,1.5
same,The level of expressed mRNA in the presence of chemical substance/The level of expressed mRNA in the absence of chemical substance,yeast gene YFL043C,1.2
same,"The level of expressed mRNA in the presence of chemical substance/ (in its absence), gene YGL035C","yeast gene YGL035C, ratio of DNA chip fluorescence intensity to that without chemical substance",1.2
same,"The level of expressed mRNA in the presence of chemical substance/ (in its absence), gene YGL115W","yeast gene YGL115W, ratio of DNA chip fluorescence intensity to that without chemical substance",1.2
same,The level of expressed mRNA in the presence of chemical substance/ (ratio to absence of chemical substance),yeast gene YGL115W,1.2
same,The level of expressed mRNA in the presence of chemical substance/The level of expressed mRNA in the absence of chemical substance,yeast gene YGL158W,1.1
same,"The level of expressed mRNA in the presence of chemical substance/ (ratio to absence), gene YGL187C","yeast gene YGL187C, mitochondria-located protein genes, 2 h culture with chemical",2.4
same,"The level of expressed mRNA in the presence of chemical substance/ (in its absence), gene YGL205W","yeast gene YGL205W, ratio of DNA chip fluorescence intensity to that without chemical substance",9.1
same,The level of expressed mRNA in the presence of chemical substance/The level of expressed mRNA in the absence of chemical substance,yeast gene YGL229C,0.9
same,"The level of expressed mRNA in the presence of chemical substance/ in its absence, gene YGR062C","yeast gene YGR062C, energy system protein genes, 2 h culture with the chemical, ratio to control without chemical",1.1
same,"The level of expressed mRNA in the presence of chemical substance/ (ratio to absence), gene YGR062C","yeast gene YGR062C, mitochondria-located protein genes, 2 h culture with chemical",1.1
same,"The level of expressed mRNA in the presence of chemical substance/ (in its absence), gene YGR096W","yeast gene YGR096W, ratio of DNA chip fluorescence intensity to that without chemical substance",1.0
same,The level of expressed mRNA in the presence of chemical substance/The level of expressed mRNA in the absence of chemical substance,yeast gene YGR136W,1.8
same,The level of expressed mRNA in the presence of chemical substance/The level of expressed mRNA in the absence of chemical substance,yeast gene YGR189C,1.7
same,The level of expressed mRNA in the presence of chemical substance/The level of expressed mRNA in the absence of chemical substance,yeast gene YGR213C,8.5
same,The level of expressed mRNA in the presence of chemical substance/The level of expressed mRNA in the absence of chemical substance,yeast gene YGR257C,1.3
same,"The level of expressed mRNA in the presence of chemical substance/ (in its absence), gene YGR287C","yeast gene YGR287C, ratio of DNA chip fluorescence intensity to that without chemical substance",1.1
same,"The level of expressed mRNA in the presence of chemical substance/ (in its absence), gene YGR288W","yeast gene YGR288W, ratio of DNA chip fluorescence intensity to that without chemical substance",1.3
same,The level of expressed mRNA in the presence of chemical substance/ (ratio to absence of chemical substance),yeast gene YHL028W,2.5
same,The level of expressed mRNA in the presence of chemical substance/ (ratio to absence of chemical substance),yeast gene YHL046C,0.9
same,The level of expressed mRNA in the presence of chemical substance/The level of expressed mRNA in the absence of chemical substance,yeast gene YHR004C,1.6
same,The level of expressed mRNA in the presence of chemical substance/The level of expressed mRNA in the absence of chemical substance,yeast gene YHR071W,1.0
same,The level of expressed mRNA in the presence of chemical substance/The level of expressed mRNA in the absence of chemical substance,yeast gene YHR139C,1.3
same,The level of expressed mRNA in the presence of chemical substance/The level of expressed mRNA in the absence of chemical substance,yeast gene YHR142W,1.3
same,"The level of expressed mRNA in the presence of chemical substance/ (in its absence), gene YHR210C","yeast gene YHR210C, ratio of DNA chip fluorescence intensity to that without chemical substance",1.2
same,"The level of expressed mRNA in the presence of chemical substance/ (in its absence), gene YIL006W","yeast gene YIL006W, ratio of DNA chip fluorescence intensity to that without chemical substance",0.9
same,The level of expressed mRNA in the presence of chemical substance/ (ratio to absence of chemical substance),yeast gene YIL011W,0.8
same,The level of expressed mRNA in the presence of chemical substance/The level of expressed mRNA in the absence of chemical substance,yeast gene YIL123W,1.0
